Here are results for 15 molecules from US11447503B2, “Pyridine carbamates and their use as GLUN2B receptor modulators” (JANSSEN PHARMACEUTICA NV, priority 2019, dated 2022).

Chain of human GluN1/GluN2B NMDA receptors (Q13224 27-1484, other chains not shown): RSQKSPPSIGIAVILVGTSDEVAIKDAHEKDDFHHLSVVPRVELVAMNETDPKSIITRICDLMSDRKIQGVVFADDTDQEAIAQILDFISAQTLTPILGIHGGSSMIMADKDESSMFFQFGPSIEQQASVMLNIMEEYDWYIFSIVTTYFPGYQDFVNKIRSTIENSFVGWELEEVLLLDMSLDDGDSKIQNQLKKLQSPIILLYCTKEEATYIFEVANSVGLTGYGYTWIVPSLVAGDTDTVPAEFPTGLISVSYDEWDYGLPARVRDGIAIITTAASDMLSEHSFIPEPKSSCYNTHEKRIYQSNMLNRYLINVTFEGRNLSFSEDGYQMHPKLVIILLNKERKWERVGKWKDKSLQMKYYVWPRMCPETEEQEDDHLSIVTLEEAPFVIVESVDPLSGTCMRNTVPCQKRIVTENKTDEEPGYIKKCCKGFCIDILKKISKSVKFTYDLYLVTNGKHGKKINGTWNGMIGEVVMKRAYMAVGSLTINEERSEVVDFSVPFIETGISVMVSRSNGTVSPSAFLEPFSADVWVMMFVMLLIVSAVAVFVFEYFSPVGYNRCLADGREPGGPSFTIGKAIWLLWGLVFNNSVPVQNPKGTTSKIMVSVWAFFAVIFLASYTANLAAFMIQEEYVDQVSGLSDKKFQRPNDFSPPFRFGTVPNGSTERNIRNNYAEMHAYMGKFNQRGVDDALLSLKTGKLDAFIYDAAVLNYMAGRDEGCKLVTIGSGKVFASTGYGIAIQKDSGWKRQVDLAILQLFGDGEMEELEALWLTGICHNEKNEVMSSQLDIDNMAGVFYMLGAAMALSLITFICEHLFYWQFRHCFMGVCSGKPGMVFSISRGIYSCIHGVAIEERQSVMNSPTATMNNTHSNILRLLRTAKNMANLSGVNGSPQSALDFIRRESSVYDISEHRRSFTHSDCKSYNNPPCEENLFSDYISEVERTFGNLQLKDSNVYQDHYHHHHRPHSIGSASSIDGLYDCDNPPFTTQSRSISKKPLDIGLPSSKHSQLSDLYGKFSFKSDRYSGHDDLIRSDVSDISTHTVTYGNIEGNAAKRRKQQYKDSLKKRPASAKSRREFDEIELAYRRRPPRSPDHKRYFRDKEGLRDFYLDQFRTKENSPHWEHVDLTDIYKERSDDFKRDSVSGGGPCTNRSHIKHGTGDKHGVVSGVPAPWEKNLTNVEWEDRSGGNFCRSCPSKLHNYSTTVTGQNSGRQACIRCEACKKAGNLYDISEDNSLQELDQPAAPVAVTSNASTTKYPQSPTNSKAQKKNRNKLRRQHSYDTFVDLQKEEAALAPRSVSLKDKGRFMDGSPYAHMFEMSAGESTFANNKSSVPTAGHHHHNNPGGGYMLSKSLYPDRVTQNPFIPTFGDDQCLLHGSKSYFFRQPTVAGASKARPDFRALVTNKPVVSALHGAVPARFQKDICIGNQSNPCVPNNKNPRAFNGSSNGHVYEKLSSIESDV

In the assay the target is human GluN1/GluN2B NMDA receptors (Homo sapiens, UniProt Q05586+Q13224). In words: Cell-based calcium flux (FLIPR) assay on cloned human GluN1/GluN2B ion channels expressed in mammalian cells. The conditions noted are these: standard assay; glutamate ~EC40, 10 μM glycine; stable Tet-On cell line. In short, it runs like this:
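Tet-On-induced stable cells expressing human GluN1/GluN2B, Calcium 5 dye. Compounds preincubated 5 min (agonist check), then glutamate at ~EC40 plus 10 μM glycine added for 5 min; Mg2+ and buffer composition differ between standard and HTS formats. FLIPR Tetra fluorescence normalised to control wells; (+)MK-801 as antagonist control.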
In general terms: Calcium flux is commonly read through the fluorescence of an indicator in the cells.
As for `COc1ncc(-c2cccc(Cl)c2)cc1CN1CCOC1=O` [Example 109, 3-[[5-(3-Chlorophenyl)-2-methoxy-3-pyridyl]methyl]oxazolidin-2-one], the IC50 (as a rule, the concentration at which inhibition is half-maximal) amounted to 477 nM.

Turning to `COc1ncc(-c2ccc(F)c(C(C)(F)F)c2)cc1CN1CCOC1=O` [Example 110, 3-[[5-[3-(1,1-Difluoroethyl)-4-fluoro-phenyl]-2-methoxy-3-pyridyl]methyl]oxazolidin-2-one], the IC50 stood at 37 nM.

Turning to `COc1ncc(-c2cccc(C(C)(F)F)c2)cc1CN1CCOC1=O` [Example 111, 3-[[5-[3-(1,1-Difluoroethyl)phenyl]-2-methoxy-3-pyridyl]methyl]oxazolidin-2-one], the IC50 was found to be 47 nM.

As for `COc1ncc(-c2cc(C)c(F)c(F)c2)cc1CN1CCOC1=O` [Example 112, 3-[[5-(3,4-Difluoro-5-methyl-phenyl)-2-methoxy-3-pyridyl]methyl] oxazolidin-2-one], the IC50 amounted to 18 nM.

With `COc1ncc(-c2ccc(F)c(OC(F)(F)F)c2)cc1CN1CCOC1=O` [Example 113, 3-[[5-[4-Fluoro-3-(trifluoromethoxy)phenyl]-2-methoxy-3-pyridyl]methyl]oxazolidin-2-one], the IC50 was 13 nM.

Consider `COc1ncc(-c2cc(F)cc(C)c2F)cc1CN1CCOC1=O` [Example 114, 3-[[5-(2,5-Difluoro-3-methyl-phenyl)-2-methoxy-3-pyridyl]methyl] oxazolidin-2-one], for which the IC50 turned out to be 542 nM.

Take `COc1ncc(-c2ccc(Cl)c(C(F)F)c2)cc1CN1CCOC1=O` [Example 115, 3-[[5-[4-Chloro-3-(difluoromethyl)phenyl]-2-methoxy-3-pyridyl]methyl]oxazolidin-2-one]: the IC50 was determined as 10 nM.

`COc1ncc(-c2ccc(F)c(C)c2)cc1CN1CCOC1=O` [Example 116, 3-[[5-(4-Fluoro-3-methyl-phenyl)-2-methoxy-3-pyridyl]methyl]oxazolidin-2-one]: the IC50 was 18 nM.

For the molecule `COc1ncc(-c2ccc(F)c(OC(F)F)c2)cc1CN1C(=O)OC[C@@H]1C` [Example 117, (4S)-3-[[5-[3-(Difluoromethoxy)-4-fluoro-phenyl]-2-methoxy-3-pyridyl]methyl]-4-methyl-oxazolidin-2-one], the IC50 was determined as 60 nM.

For `COc1ncc(-c2ccc(F)c(OC(F)F)c2)cc1CN1C(=O)OC[C@H]1C` [Example 118, (4R)-3-[[5-[3-(Difluoromethoxy)-4-fluoro-phenyl]-2-methoxy-3-pyridyl]methyl]-4-methyl-oxazolidin-2-one], the IC50 was found to be 26 nM.

With `COc1ncc(-c2ccc(F)c(OC(F)F)c2)cc1CN1CCOC1=O` [Example 119, 3-[[5-[3-(Difluoromethoxy)-4-fluoro-phenyl]-2-methoxy-3-pyridyl]methyl]oxazolidin-2-one], the IC50 amounted to 12 nM.

For `COc1ncc(-c2ccc(F)c(C(F)F)c2)cc1CN1C(=O)OC[C@@H]1C` [Example 120, (4S)-3-[[5-[3-(Difluoromethyl)-4-fluoro-phenyl]-2-methoxy-3-pyridyl]methyl]-4-methyl-oxazolidin-2-one], the IC50 was found to be 121 nM.

As to `COc1ncc(-c2ccc(F)c(C(F)F)c2)cc1CN1C(=O)OC[C@H]1C` [Example 121, (4R)-3-[[5-[3-(Difluoromethyl)-4-fluoro-phenyl]-2-methoxy-3-pyridyl]methyl]-4-methyl-oxazolidin-2-one], the IC50 is 21 nM.

Turning to `COc1ncc(-c2ccc(F)c(C(F)F)c2)cc1CN1CCOC1=O` [Example 122, 3-[[5-[3-(Difluoromethyl)-4-fluoro-phenyl]-2-methoxy-3-pyridyl]methyl]oxazolidin-2-one], the IC50 stood at 15 nM.

Take `O=C1OCCCN1Cc1cc(-c2ccc(F)c(C(F)F)c2)cnc1C(F)F` [Example 123, 3-[[2-(Difluoromethyl)-5-[3-(difluoromethyl)-4-fluoro-phenyl]-3-pyridyl]methyl]-1,3-oxazinan-2-one]: the IC50 was 63 nM.
